# Data as given in patent US20120136416A1, “Caged Neuropeptides: modulation and measurement of synapse and signaling activity; and methods for drug evaluation, pharmaceuticals preparation and treatment” (PRESIDENT AND FELLOWS OF HARVARD COLLEGE, priority 2010, published 2012).
# How the values were obtained:
# [1] = tested on: locus coeruleus (LC) neurons; assay: Whole-cell recordings from locus coeruleus neurons in acute brain slices, local perfusion or UV uncaging; assay type: cell-based, rat
# [2] = target: human kappa opioid receptors (OPRK1) (Homo sapiens, UniProt P41145); assay type: cell-based
# Sequence of human kappa opioid receptors (OPRK1) (P41145 whole entry, looked up): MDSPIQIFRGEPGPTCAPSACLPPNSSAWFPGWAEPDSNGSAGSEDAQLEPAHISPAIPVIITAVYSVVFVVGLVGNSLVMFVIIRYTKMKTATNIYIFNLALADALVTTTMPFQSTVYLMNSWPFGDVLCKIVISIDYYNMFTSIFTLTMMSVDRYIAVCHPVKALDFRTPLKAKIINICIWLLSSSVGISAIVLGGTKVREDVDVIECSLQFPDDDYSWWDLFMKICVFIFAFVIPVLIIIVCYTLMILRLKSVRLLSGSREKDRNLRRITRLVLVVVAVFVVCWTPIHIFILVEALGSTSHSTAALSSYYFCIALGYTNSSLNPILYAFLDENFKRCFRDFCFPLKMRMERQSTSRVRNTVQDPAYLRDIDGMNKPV
# [3] = tested on: CA1 region of the hippocampus; assay: Extracellular field potential recordings (population spike) in acute hippocampal slices, UV uncaging; assay type: cell-based, mice
# Protocol: Preliminary electrophysiological evaluation was carried out in transverse hippocampal slices from P15-18 mice and focused on inhibitory neurons, the predominant cells expressing Mu and Delta opioid receptors in the CA1 region. Initial neurophysiological evaluations were carried out in acute hippocampal slices from P24-30 mice. […] Extracellular field potential recordings reveal this as an increase in the population spike (pSpike) amplitude in response to Schaeffer collateral stimulation at 0.1 Hz. […] These experiments confirmed that photolysis in living tissue elicits a physiological response.
molecule,measurement,setting,value
Nc1ccncc1 [4-AP],effect on residual Ba^2+-insensitive outward current,[1],unable to block or occlude
"[Ba+2].[Cl-].[Cl-] [Ba^2+, BaCl2]",outward current blocked,[1],80%
"[Cl][Cd][Cl] [Cd^2+, CdCl2]",effect on residual Ba^2+-insensitive outward current,[1],unable to block or occlude
"CC(C)C[C@H](NC(=O)[C@H](Cc1ccccc1)NC(=O)CNC(=O)CNC(=O)[C@@H](N)Cc1ccc(O)cc1)C(=O)O [L-Enk, Leu-Enkephalin]",activation of kappa receptors,[2],did not activate
CC1(C)[C@@H](OC(=O)CCC(=O)O)CC[C@]2(C)[C@H]3C(=O)C=C4[C@@H]5C[C@@](C)(C(=O)O)CC[C@]5(C)CC[C@@]4(C)[C@]3(C)CC[C@@H]12 [carbenoxolone],effect on responses to the uncaging stimuli,"[1]; 100 uM, n=10 cells",not significantly attenuated
C=CCN1CC[C@]23c4c5ccc(O)c4O[C@H]2C(=O)CC[C@@]3(O)[C@H]1C5 [naloxone],effect on light-evoked outward current,"[1]; 2 μM, uncaging of 10 μM CYLE",blocked
same,effect on light-evoked pSpike increases,[3],blocked
ZD7288,effect on residual Ba^2+-insensitive outward current,[1],unable to block or occlude
